“Also recorded” adds a separate entry of the source. Where a name gives a salt, the structure may show the parent alone.
Legend:
mice = test: Tissue NAD+ levels after IP injection of NR or NRH in mice; type: in vivo; conditions: IP 500 mg/kg, after 1 h
[1] = Circulating NAM, NRH and NR after IP injection in mice; type: in vivo
Method: (§1) The UHPLC consisted of a binary pump, a cooled autosampler, and a column oven (DIONEX Ultimate 3000 UHPLC+ Focused, Thermo Scientific), connected to a triple quadrupole spectrometer (TSQ Vantage, Thermo Scientific) equipped with a heated electrospray ionisation (H-ESI) source. Of each sample, 2 µL were injected into the analytical column (2.1 mm x 150 mm, 5 µm pore size, 200 Å HILICON iHILIC®-Fusion(P)), guarded by a pre-column (2.1 mm x 20 mm, 200 Å HILICON iHlLIC®-Fusion(P) Guard Kit) operating at 35° C. The mobile phase (10 mM ammonium acetate at pH 9, A, and acetonitrile, B) was pumped at 0.25 mL/min flow rate over a linear gradient of decreasing organic solvent (0.5-16 min, 90-25% B), followed by re-equilibration for a total run time of 30 min. The MS operated in positive mode at 3500 V with multiple reaction monitoring (MRM). The software Xcalibur v4.1.31.9 (Thermo Scientific) was used for instrument control, data acquisition and processing.

[2] = tested on: primary hepatocytes from either control or NRK1 knockout (NRK1 KO) mice; test: NAD+ levels in primary hepatocytes from control or NRK1 knockout mice; type: cell-based; conditions: after 1 hour of treatment
Excerpt: (§2) If NRH led to NAD+ synthesis via the formation of NMNH, this hypothetical path would require the phosphorylation of NRH into NMNH.

[3] = Stability of NRH or NR spiked in isolated mouse plasma; type: in vitro ADME
Method: as §1
(§3) NR degradation to NAM has been proposed as a limitation for its pharmacological efficacy.

AML12 hepatocytes = test: Intracellular NAD+ levels in AML12 hepatocytes treated with NRH or NR (dose-response, time course); type: cell-based
Method: FIG. 3. NHR acts rapidly after 5 minutes from treatment.

INS1-cells = test: NAD+ levels after NRH treatment in INS1-cells; type: cell-based
[4] = tested on: Primary rat cortical neurons; test: Amyloid β oligomer induced loss of neurite network in primary cortical neurons (MAP-2 staining); type: cell-based; conditions: NRH 0.01 mM pre-incubated 24 hr or 6 hr, Aβ1-42 15 µmol/L for 24 h
Method: FIG. 7. […] Primary rat cortical neurons were cultured as described in Callizot et al., 2013. […] The Aβ1-42 preparation was done as described in Callizot et al., 2013. The Aβ1-42 preparation was added to a final concentration of 15 µmol/L (2.25 µmol/L oligomers, AβO) diluted in control medium in presence of compounds and let for 24 h. The cortical neurons were then fixed by a cold solution of ethanol (95%) and acetic acid (5%), permeabilized with saponin and incubated with an anti microtubule-associated-protein 2 (MAP-2), to stain cell bodies and neurites, allowing the study of the length of the neurite network. For each condition, 30 pictures (representative of the all well area) per well were taken using ImageXpress (Molecular Devices) with 20x magnification. Neurite length was then evaluated as % of control values. All values are expressed as mean +/-SEM from 5-6 independent wells. * indicates statistically significant difference vs. the amyloid b1-42 treated groups.
Primary rat cortical neurons were cultured as described in Callizot et al., 2013. […] The Aβ1-42 preparation was done as described in Callizot et al., 2013. The Aβ1-42 preparation was added to a final concentration of 15 µmol/L (2.25 µmol/L oligomers, AβO) diluted in control medium in presence of compounds and let for 24 h. […] Neurite length was then evaluated as % of control values.

[5] = Excerpt: as §3
C2C12 myotubes = test: NAD+ levels after NRH treatment in C2C12 myotubes; type: cell-based
3T3 fibroblasts = test: NAD+ levels after NRH treatment in 3T3 fibroblasts; type: cell-based
AML12 cells = test: Pathway of NRH-induced NAD+ synthesis: intracellular metabolites and pathway inhibitors (NBTI, FK866, 5-IT, ABT-702, gallotannin); type: cell-based; parameters: action on NAD+ under adenosine kinase inhibition by 5-IT: dose or concentration left out as unconfirmed
Method: FIG. 4. NRH leads to NAD+ biosynthesis through an adenosine kinase dependent path. […] Then, 1 hour later, acidic extracts were obtained to measure NAD^+ levels. All values in the figure are expressed as mean +/- SEM of 3 independent experiments. * indicates statistical difference at p< 0.05 vs. the respective vehicle treated group.
A path in which NRH would be converted to NMNH, then to NADH and this would be finally oxidized to NAD+.
In order to understand the exact path by which NRH synthesizes NAD+, we initially evaluated whether NRH, could be transported into the cell by equilibrative nucleoside transporters (ENTs).
as §2
Considering the molecular structure of NRH, we reasoned that an alternative nucleoside kinase could be responsible for the phosphorylation of NRH.
As a follow-up step, NMNAT enzymes could catalyze the transition from NMNH to NADH.

Compound: NC(=O)c1ccc[n+]([C@@H]2O[C@H](CO)[C@@H](O)[C@H]2O)c1 [NR, 1-b-D-ribofuranosyl-3-pyridinecarboxamide salt, reference compound]
- NAD+ levels in liver, muscle and kidney (mice): increased NAD+ levels in liver, muscle and kidney
- NAM levels in circulation ([1]; mice, IP 500 mg/kg): highly increased
- NAD+ levels in NRK1 KO derived primary hepatocytes [2]: failed to increase NAD+ levels
- generation of NAM in isolated mouse plasma ([3]; 2 h of incubation): increase in NAM
- levels of the compound in isolated mouse plasma ([3]; 2 h of incubation): NR levels decayed in plasma

Compound: dihydro-1-beta-D-ribofuranosyl-3-pyridinecarboxamide [NRH]
- ability to increase intracellular NAD+ compared with NR (AML12 hepatocytes): better than NR; also recorded: superior to that of NR
- concentration range of maximal effects on NAD+ synthesis (AML12 hepatocytes): around the millimolar range
- time to significant increases in NAD+ levels after treatment (AML12 hepatocytes): ≤ 5 min
- increase of intracellular NAD+ levels at maximal effect (AML12 hepatocytes; around the millimolar range): more than 10 fold
- concentration at which NAD+ levels are significantly increased (AML12 hepatocytes; dose-response): 10 µM
- NAD+ levels in liver, muscle and kidney (mice): increased NAD+ levels in liver, muscle and kidney
- NAD+ levels (INS1-cells): highly elevated NAD+ levels
- NR in circulation ([1]; mouse, in vivo): much higher levels than those detected after NR injection itself
- NAM levels in circulation ([1]; mouse, in vivo, ip, 500 mg/kg): only a very mild increase
- neurite network / neurite length after Amyloid β1-42 exposure [4]: protects against Amyloid β oligomer induced loss of neurite network; also recorded: protects against Amyloid β-oligomer induced toxicity in terms of neurite length
- degradation to NAM in FBS supplemented media [5]: did not degrade to NAM
- NAD+ levels (C2C12 myotubes): highly elevated NAD+ levels
- NAD+ levels (3T3 fibroblasts): highly elevated NAD+ levels
- action on NAD+ under adenosine kinase inhibition by 5-IT (AML12 cells; 5-IT for 1 hour prior to NRH, NAD+ measured 1 hour later): fully ablated the action of NRH
- formation of NR and NMN after NRH treatment with 5-IT (AML12 cells; 5-IT treatment): prevented the formation of NR and NMN
- intracellular detection of NRH and NMNH (AML12 cells; 5 minutes after treatment): could be detected intracellularly
- generation of NMNH, NADH and NAD+ upon inhibition of AK (metabolomic analyses) (AML12 cells; after NRH treatment): fully blunted
- intracellular NR and NMN after treatment (AML12 cells; compared with NR treatment): increase in intracellular NR and NMN, greater than that triggered by NR itself
- NAD+ synthesis with NMNAT inhibitor gallotannin (AML12 cells; gallotannin): largely compromised NAD+ synthesis
- NRH action with gallotannin at maximal doses (AML12 cells; gallotannin, NRH 0.5 mM): part of the NRH action remained
- NRH action with gallotannin at submaximal doses (AML12 cells; gallotannin, submaximal NRH doses): totally blocked
- capacity as extracellular NAD+ precursor under ENT blockade (AML12 cells; in the presence of S-(4-nitrobenzyl)-6-thioinosine (NBTI)): largely lost its capacity as an extracellular NAD+ precursor
- action on NAD+ under adenosine kinase inhibition by ABT-702 (AML12 cells; second, structurally different AK inhibitor ABT-702): role of AK in NRH-mediated NAD+ synthesis was confirmed
- dependence of action on NAMPT (AML12 cells; with FK866, a NAMPT inhibitor): NAMPT-independent
- NR production on incubation in isolated plasma [3]: did not lead to NR production

— patent US20230114280A1, “COMPOSITIONS AND METHODS CONTAINING REDUCED NICOTINAMIDE RIBOSIDE FOR PREVENTION AND TREATMENT OF NEUROLOGICAL DISEASES AND CONDITIONS” (SOCIETE DES PRODUITS NESTLE S.A., priority 2020, published 2023)
